Assay results as given in PMC11643077, “Synthesis of 1,2,4-Oxadiazin-5(6H)-One Derivatives and Their Biological Investigation as Monoamine Oxidase Inhibitors” (Molecules, 2024).

Legend:
MAO-A [1] = system: MAO-A; set-up: method as in doi:10.1016/0223-5234(88)90141-9; conditions: Figure 1; cited from earlier work
MAO-B [2] = system: MAO-B; set-up: method as in doi:10.1016/0223-5234(88)90141-9; conditions: Figure 1; cited from earlier work
MAO-A [3] = target: T1, MAO-A (Homo sapiens, UniProt P21397); test: MAO-A inhibition, recombinant human enzyme, kynuramine substrate, fluorometric end-point; type: biochemical; conditions: mean ± SD of triplicate, racemic mixtures, NI = no inhibition at 100 µM
T1 construct: purchased Merck
T1 sequence (P21397 1-527): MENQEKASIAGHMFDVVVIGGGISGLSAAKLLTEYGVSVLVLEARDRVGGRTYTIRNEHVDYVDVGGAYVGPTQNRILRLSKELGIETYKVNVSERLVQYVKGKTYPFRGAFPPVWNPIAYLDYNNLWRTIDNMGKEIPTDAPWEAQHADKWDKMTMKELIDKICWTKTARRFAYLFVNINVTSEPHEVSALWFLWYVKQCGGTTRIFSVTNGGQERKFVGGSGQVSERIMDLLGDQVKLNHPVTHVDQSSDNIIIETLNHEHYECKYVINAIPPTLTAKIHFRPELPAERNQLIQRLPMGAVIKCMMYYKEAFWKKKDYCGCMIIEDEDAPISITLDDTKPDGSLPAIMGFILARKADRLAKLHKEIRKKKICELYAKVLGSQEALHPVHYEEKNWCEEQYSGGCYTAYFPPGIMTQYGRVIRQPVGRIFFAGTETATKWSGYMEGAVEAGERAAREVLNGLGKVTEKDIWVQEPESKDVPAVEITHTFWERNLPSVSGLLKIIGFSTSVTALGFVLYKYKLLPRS
Procedure: (§1) The in vitro inhibition studies were carried out according to the published procedure, and the inhibition potencies were expressed as the IC50 values (Figure 2). […] A variety of C3 substituents were explored in this study, which included the phenyl, benzyl and 5-methylthiophen-2-yl moieties, while different substituents on the phenyl (e.g., CH3, OCH3, Cl, Br, F, CF3, OCF3, NO2, PhO) were considered.
(§2) The inhibition potencies of the 1,2,4-oxadiazin-5(6H)-one derivatives were determined using commercially available recombinant human MAO-A and MAO-B (Merck) according to the published procedure. Stock solutions of all compounds were prepared in DMSO and added to the enzyme reactions to yield a final concentration of 4% DMSO. […] Kynuramine was used as enzyme substrate for both MAO isoforms and was oxidized to ultimately form 4-hydroxyquinoline, which is a fluorescent metabolite. The concentrations of 4-hydroxyquinoline in the reactions were measured at end-point by fluorescence spectrometry (λex = 310 nm; λem = 400 nm). Using this approach, the rates of kynuramine oxidation by MAO were measured in the presence of different concentrations of the test inhibitors (0.003–100 µM) as well as in the absence of inhibitor. […] IC50 values were estimated from these plots and were reported as the mean ± SD of triplicate determinations.

MAO-B [4] = target: T2, MAO-B (Homo sapiens, UniProt P27338); test: MAO-B inhibition, recombinant human enzyme, kynuramine substrate, fluorometric end-point; type: biochemical; conditions: mean ± SD of triplicate, racemic mixtures, NI = no inhibition at 100 µM
T2 construct: purchased Merck
T2 sequence (P27338 1-520): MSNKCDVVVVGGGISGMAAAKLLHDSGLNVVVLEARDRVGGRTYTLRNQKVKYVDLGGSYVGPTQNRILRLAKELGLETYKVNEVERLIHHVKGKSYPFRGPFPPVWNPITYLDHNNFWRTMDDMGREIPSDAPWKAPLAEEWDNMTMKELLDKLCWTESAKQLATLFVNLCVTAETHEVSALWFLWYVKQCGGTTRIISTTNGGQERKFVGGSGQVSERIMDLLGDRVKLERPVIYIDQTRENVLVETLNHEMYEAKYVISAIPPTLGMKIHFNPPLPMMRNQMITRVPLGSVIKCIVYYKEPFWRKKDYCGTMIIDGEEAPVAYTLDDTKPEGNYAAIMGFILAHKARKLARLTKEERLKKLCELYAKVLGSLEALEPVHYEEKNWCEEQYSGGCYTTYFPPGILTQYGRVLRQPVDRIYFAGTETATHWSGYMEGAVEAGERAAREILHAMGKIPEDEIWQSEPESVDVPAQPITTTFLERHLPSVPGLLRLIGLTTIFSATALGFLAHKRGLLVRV
Procedure: as §1, §2

MAO-B [5] = target: T2, MAO-B; test: Mode of MAO-B inhibition, Lineweaver-Burk plots; type: biochemical
Procedure: To investigate the mode of MAO inhibition, Lineweaver–Burk plots were constructed for the two inhibitors of the respective MAO isoforms, 3f and 5f. For each inhibitor, six plots were constructed using a range of eight substrate concentrations (15–250 µM) for each plot. The inhibitor concentrations were selected to bracket the IC50 values. […] For each isoform, a plot was also constructed in the absence of the inhibitor.
To investigate the mode of inhibition, Lineweaver–Burk plots were constructed. A set of six plots were constructed for each test inhibitor using five inhibitor concentrations that bracketed the IC50 value as well as one plot in the absence of inhibitor. For each line, eight different concentrations of kynuramine (15–250 µM) were used. Subsequently, the slopes of the Lineweaver–Burk plots were plotted versus inhibitor concentration, and the Ki values were estimated from the x-intercept (Ki = −x-intercept).

| IC50 (MAO-A [3]) [µM] | IC50 (MAO-B [4]) [µM] | mode of MAO-B inhibition (MAO-B [5]; Lineweaver-Burk plots) | Ki (MAO-B [5]; from replot of Lineweaver-Burk slopes versus inhibitor concentration (0.25 to 1.25 µM), kynuramine 15–250 µM) [nM] | melting point [°C] | SMILES | IC50 (MAO-A [1]) [nM] | IC50 (MAO-B [2]) [nM] |
| --- | --- | --- | --- | --- | --- | --- | --- |
| – | – | – | – | – | N#CCCN1N=C(c2ccc(-c3ccccc3)cc2)OCC1=O [A, 2-(4-Biphenylyl)-4-(2-cyanoethyl)-4H-1,3,4-oxadiazin-5(6H)-one] | 32000 | 630 |
| 15.4 ± 1.98 | 0.9 ± 0.05 | competitive inhibition | 350 | 117 to 119 | CCC1ON=C(c2ccc(Oc3ccc(OC)cc3)cc2)NC1=O (stereo not shown) [Compound 5f, 6-Ethyl-3-(4-(4-methoxyphenoxy)phenyl)-4H-1,2,4-oxadiazin-5(6H)-one] | – | – |
